Experimental data published in patent US20220098320A1, “SENOLYTIC CAR-T CELLS TARGETING UPAR, A CELL SURFACE AND SECRETED […]” (MEMORIAL SLOAN KETTERING CANCER CENTER, priority 2019, published 2022).

Assays:
suPAR [1] = experiment: CCl4-induced liver fibrosis: plasma suPAR; format: in vivo; conditions: CCl4-treated mice vs untreated controls; FIGS. 5B and 16D
Protocol: In vivo induction of liver fibrosis. C57BL/6J mice were treated twice a week with 12 consecutive intraperitoneal (i.p.) injections of 1 ml/kg carbon tetrachloride (CCl4) to induce liver fibrosis. For murine CAR T cell studies, cyclophosphamide (200 mg/kg) was administered 24 hours before T cell injection. Mice received 3×10^6 CAR^+ T cells or untransduced T cells and CCl4 was continuously administered at the same dose and interval after T cell injection until day 20 post CAR injection. Animals were sacrificed 48-72 h after the last CCl4 injection. NSG mice were treated twice a week with 8 consecutive i.p. injections of 1 ml/kg CCl4 to induce liver fibrosis. For human CAR T cell studies, mice received 0.5×10^6 CAR T cells or untransduced T cells and CCl4 was continued once a week after CAR T injection until day 10 post CAR administration, when animals were sacrificed 48-72 h after the last CCl4 injection. Venous blood was collected by facial vein puncture.
(§1) Detection of suPAR levels. suPAR levels from cell culture supernatant of murine plasma were evaluated by enzyme-linked immunosorbent assay (ELISA) according to the manufacturer's protocol (R&D systems, DY531 (mouse) or DY807 (human)).

suPAR [2] = experiment: doxorubicin-induced senescence in vivo: plasma suPAR by ELISA; set-up: species or system C57BL/6J mice; conditions: doxorubicin i.p. day 0 and day 10; blood at days 10 and 20; FIG. 7D
Protocol: In vivo induction of doxorubicin-Induced senescence. […] Venous blood was collected by facial vein puncture at days 10 and 20 after initial doxorubicin administration. Detection of suPAR levels. suPAR levels from cell culture supernatant of murine plasma were evaluated by enzyme-linked immunosorbent assay (ELISA) according to the manufacturer's protocol (R&D systems, DY531 (mouse) or DY807 (human)).

suPAR [3] = experiment: bleomycin-induced lung fibrosis: plasma suPAR; format: in vivo, NSG mice; conditions: intratracheal bleomycin; FIGS. 9C-9E
Protocol: as §1

ClC(Cl)(Cl)Cl [CCl4, carbon tetrachloride]
plasma suPAR levels (suPAR [1]): elevation of plasma suPAR levels relative to untreated controls

COc1cccc2c1C(=O)c1c(O)c3c(c(O)c1C2=O)C[C@@](O)(C(=O)CO)C[C@@H]3O[C@H]1C[C@H](N)[C@H](O)[C@H](C)O1 [doxorubicin]
plasma levels of suPAR (suPAR [2]): time-dependent and dose-dependent correlation with the plasma levels of suPAR

bleomycin
plasma levels of suPAR (suPAR [3]): Higher levels of suPAR
